According to PubChem BioAssay (NCI):
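48-hour exposure; five concentrations; linearly interpolated endpoints. TGI: concentration producing complete growth inhibition.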

Columns and labels:
Experiment in all cases: DTP human tumour cell line panel, 48 h
[1] = test system: CAKI-1 renal
[2] = test system: COLO 205 colon
[3] = test system: HCC-2998 colon
[4] = test system: HL-60(TB) leukemia
[5] = test system: HOP-92 NSCLC
[6] = test system: LOX IMVI melanoma
[7] = test system: MALME-3M melanoma
[8] = test system: NCI-H23 lung
[9] = test system: OVCAR-5 ovarian
[10] = test system: OVCAR-8 ovarian
[11] = test system: SF-295 CNS
[12] = test system: SK-MEL-28 melanoma
[13] = test system: U251 CNS
[14] = test system: UO-31 renal
[15] = test system: BT-549 breast
[16] = test system: MDA-N
[17] = test system: DU-145 prostate
[18] = test system: MDA-MB-435

SMILES	TGI [1] [µM]	TGI [2] [µM]	TGI [3] [µM]	TGI [4] [µM]	TGI [5] [µM]	TGI [6] [µM]	TGI [7] [µM]	TGI [8] [µM]	TGI [9] [µM]	TGI [10] [µM]	TGI [11] [µM]	TGI [12] [µM]	TGI [13] [µM]	TGI [14] [µM]	TGI [15] [µM]	TGI [16] [µM]	TGI [17] [µM]	TGI [18] [µM]
CCOC(=O)C(C)Sc1nnc(COc2ccc(Cl)cc2)n1-c1ccccc1 (stereo not drawn)	31.7	33.2	49	39.7	44	27.4	63.6	42.7	94.8	60	85.4	49.2	35.1	28				
C[C@@H]1[C@H](O)CC2=C(CC[C@@H](O)C2(C)C)[C@@]1(CO)CCc1ccoc1	> 50	> 50	> 50	> 50	> 50	> 50	> 50	> 50	> 50	> 50	> 50	> 50	> 50	> 50	> 50	> 50		
CC(=O)OC1OC(c2ccoc2)C[C@@]12C1CCC3O[C@]3(C)[C@]1(C)[C@H](OC(C)=O)[C@H](OC(C)=O)[C@H]2C (stereo partly drawn)	> 37.5	> 37.5	> 37.5	> 37.5	> 37.5	> 37.5	> 37.5	> 37.5	> 37.5	> 37.5	> 37.5	> 37.5	> 37.5	> 37.5	> 37.5	> 37.5		
O=C(c1ccco1)N(C(=S)N1CCN(c2ccccc2)CC1)C1CCCCC1	> 100	> 100		> 100	> 100	> 100	> 100	> 100	> 100	> 100	> 100		> 100	> 100				
N#COc1ccc(Oc2ccccc2)cc1	> 100	> 100	> 100	75.8	> 100	40.9	> 100	> 100	> 100	> 100	> 100	> 100	> 100	> 100				
CCO/S(=N/S(=O)(=O)c1ccccc1)c1ccccc1[N+](=O)[O-] (stereo not drawn)	> 100	> 100	> 100			> 100	> 100	> 100	> 100	> 100	> 100	> 100	> 100	> 100				
[N-]=[N+]=NC1(c2ccccc2)C(=O)C(Cl)=C(c2ccccc2)N(c2ccccc2)C1=O (stereo not drawn)	> 100	> 100	> 100	> 100	> 100	> 100	> 100	> 100	> 100	> 100	> 100	> 100	> 100	> 100				
CCC(=O)NI1OC(=O)c2ccccc21	55.2	> 100	> 100	> 100	> 100	> 100		> 100	> 100	> 100	> 100	> 100	> 100	> 100	> 100		> 100	> 100
CC(C)(C)C1CCC2c3c([nH]c4ncccc34)C3C(=O)N(c4ccccc4)C(=O)C3C2C1 (stereo not drawn)	> 100	> 100	> 100	> 100	> 100	> 100	> 100	> 100	> 100	> 100	> 100	> 100	> 100	> 100				
O=C(CC(O)(C(F)(F)F)C(F)(F)Cl)CC(O)(C(F)(F)F)C(F)(F)Cl (stereo not drawn)	> 10	3.07	> 10	> 10	4.57	7.34	6.34	4.34		> 10	7.91	> 10	8.39	> 10		> 10	> 10	> 10
NC(=O)CN1CC(C2=C(O)CN(CC(N)=O)C2=O)=CC1=O	> 100	> 100	> 100	> 100	> 100	> 100	> 100	> 100	> 100	> 100	> 100	> 100	> 100	> 100	> 100		> 100	> 100
CC(=O)N1c2ccccc2C2=NN(C)C(=N)SC21 (stereo not drawn)		> 100	> 100	> 100		> 100	> 100	> 100	> 100	> 100	> 100	> 100	> 100	> 100	> 100	> 100	> 100	> 100
CC(=O)Nc1ccc2c3c(cc(O)c2c1)N(C(=O)CCCCC(=O)N1CC(CCl)c2c1cc(O)c1cc(NC(C)=O)ccc21)CC3CCl (stereo not drawn)	18.1	0.376	0.443	4.39		> 100	0.575	0.744	8.54	> 32.4	> 24.1	> 33.3		> 44.6	2.31	0.566	0.209	0.71
S=C=Nc1ccc(CSc2nc3ccccc3[nH]2)cc1	33.5	29	32.1	> 100	32	35.6	32	32.7	32.4	32.3	32.3	37.3	30.9	34.8		40.7	29.6	33.9
COC(=O)C1CCC(=O)N1CN(C(C)=O)c1cc(OC)ccc1OC (stereo not drawn)	> 100	> 100		> 100	> 100	> 100	> 100	> 100	> 100	> 100	> 100	> 100	> 100	> 100		> 100	> 100	> 100
COc1cc2c(oc(=O)c3c4occc4cc(OC)c23)c2cccc(OCc3ccccc3)c12	> 100	> 100	> 100	> 100	> 100	> 100	> 100	> 100	> 100	> 100	> 100	> 100	> 100	> 100				
COC(=O)c1cc(OS(=O)(=O)C(F)(F)F)c(=O)n2c1CCCC2	> 100	> 100		> 100		> 100	> 100	> 100	> 100	> 100	> 100	> 100	> 100	> 100	> 100	> 100	> 100	> 100
Cn1nc2ccc([N+](=O)[O-])cc2[n+]1[O-]	> 100	> 100	> 100				> 100	> 100	> 100	> 100	> 100		> 100	> 100	> 100	> 100	> 100	> 100
CC(=O)NC1C(OC(C)C(=O)NC(C(=O)NC(CCC(=O)NCCCNC2c3ccccc3Nc3cccc([N+](=O)[O-])c32)C(N)=O)C(C)C)C(O)C(CO)OC1(C)OCc1ccccc1 (stereo not drawn)	3.05	7.77	2.2			4.6	2.69	3.3	9.44	3.28	3.23		3.22	2.73	4.1	4.78	0.817	2.77
COc1ccc2c3c([nH]c(=O)c2c1C(=O)O)-c1ccccc1CC3	> 100	> 100	> 100	> 100	> 100	> 100	> 100	> 100	> 100		> 100	> 100	> 100	> 100				
CSc1nc(Nc2ccccc2Cl)c2c(N)nn(C)c2n1	> 100	> 100	> 100			> 100	> 100	> 100	> 100	> 100	> 100	> 100	> 100	> 100	> 100	> 100	> 100	> 100
CCOC(=O)Nc1sc2c(c1C#N)CC(C)CC2 (stereo not drawn)	> 100	18.2	11.2	13.1	> 100	54.5	76.9	> 100	99.1	> 100	> 100	> 100	> 100	46.1	> 100		> 100	> 100
CC(C)(C)c1cc2c(c(C(C)(C)C)c1O)CC(=O)O2		37.6	96.7	86.8	17.9	> 100		59.3	> 100	> 100	85.7	> 100	> 100	66.6		> 100	> 100	66
Cc1ccc(S(=O)(=O)NC(=O)Nc2cccc(S(N)(=O)=O)c2)cc1	> 100	> 100	> 100	> 100	> 100	> 100	> 100	> 100	> 100		> 100	> 100	> 100	> 100			> 100	> 100
c1csc(-c2nccc3c2[nH]c2ccccc23)c1	71.5	28.9	39.6	55.9	41.5	39.7	47.2	38.2	85.5	42.8	34.9	43	75.9			35.4	63.9	32.2
O=C1C2=Cc3ccccc3OC2(O)Oc2ccccc21 (stereo not drawn)	> 100	> 100	> 100		> 100	> 100	> 100	> 100	> 100	> 100	> 100	> 100	> 100			> 100	> 100	> 100
O=c1[nH]c2cc([N+](=O)[O-])ccc2nc1/C(=N/Nc1ccccc1)C(O)c1ccco1 (stereo not drawn)	> 100	> 100	> 100	> 100		> 100	> 100			> 100	> 100		> 100	> 100				
COc1cc2oc(=O)cc(C)c2c(OC)c1O		> 100				> 100	> 100	> 100	> 100	> 100	> 100	> 100	> 100	> 100		> 100	> 100	> 100
CCOc1ccccc1NC(=O)C(=O)C(/C(=N/N)C(=O)OC)c1nc2ccc([N+](=O)[O-])cc2[nH]c1=O (stereo not drawn)	> 100		> 100	> 100	> 100	> 100	> 100		> 100	> 100	> 100	> 100	> 100		> 100	> 100		> 100
CN(C)C1(N(C)C)Oc2c(c(=O)n(C)c(=O)n2C)C(c2ccc(C(F)(F)F)cc2)C1(F)F (stereo not drawn)	> 100	> 100	> 100		> 100	> 100		> 100	> 100		> 100	> 100	> 100	> 100	> 100		> 100	> 100
